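Five concentrations, 48 hours, 96-well plates. GI50 is the concentration that inhibits growth by half. At the TGI there is no net growth.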
Legend:
Assay in all cases: NCI tumour cell line growth inhibition, 48 h
[1] = test system: UO-31 renal
[2] = test system: SK-OV-3 ovarian
[3] = test system: IGROV1 ovarian
[4] = test system: NCI-H23 lung
[5] = test system: HOP-92 NSCLC
[6] = test system: NCI-H522 lung
[7] = test system: SN12C renal
[8] = test system: OVCAR-4 ovarian
[9] = test system: M14 melanoma
[10] = test system: TK-10 renal

Row | Structure (SMILES) | GI50 [1] [µM] | TGI [1] [µM] | GI50 [2] [µM] | TGI [2] [µM] | GI50 [3] [µM] | TGI [3] [µM] | GI50 [4] [µM] | TGI [4] [µM] | GI50 [5] [µM] | TGI [5] [µM] | GI50 [6] [µM] | TGI [6] [µM] | GI50 [7] [µM] | TGI [7] [µM] | GI50 [8] [µM] | TGI [8] [µM] | GI50 [9] [µM] | TGI [9] [µM] | GI50 [10] [µM] | TGI [10] [µM]
1 | COc1ccc(C2=C(c3ccc(OC)cc3)C(=O)OC2)cc1 | 3.18 | > 43.5 | 2.2 | > 100 | 5.03 | > 100 | 3.46 | 30.8 | 7.45 | 51.9 | 0.342 | 1.85 | 7.68 | 42.2 | 16 | > 100 | 1.64 | 12.4 | 1.1 | 8.01
2 | CCCC(=O)Oc1ccc(/C(=C(\C)c2ccc(Cl)cc2)c2ccc(OCCN(CC)CC)cc2)cc1 | 1.43 | 3.11 | 4.85 | 17.5 | 6.99 | 21.6 | 3.69 | 15.6 | 7.76 | 23.4 | 12.9 | 29.5 | 4.55 | 18.1 | 4.16 | 19.4 | 1.9 | 4.36 | 5.29 | 20.7
3 | O=CNC(Cc1cnc[nH]1)C(=O)O (stereo not given) |  | > 100 |  | > 100 |  | > 100 |  | > 100 |  | > 100 |  | > 100 |  | > 100 |  | > 100 |  | > 100 |  | > 100
4 | O=C(CSSCC(=O)c1ccc(Cl)cc1)c1ccc(Cl)cc1 | 3.48 | 17.5 | 4.34 | 22.4 | 5.83 | 26.6 | 8.22 | 30.3 | 5.37 | 19.4 | 3.56 | 15.3 | 3.7 | 36.4 | 18.3 | 93.9 | 5.59 | 22.1 | 3.83 | 13.8
5 | O=C1c2ccccc2C(=O)c2c1ccc1conc21 |  | 9.53 |  | 13.3 |  | 5.88 |  | 3.3 |  | 3.04 |  | 3.44 |  | 3.61 |  | 2.02 |  | 5.7 |  | 15.3
6 | C=C1C(=O)OC2CC1C(OC(=O)/C=C/c1ccccc1)C/C(C)=C/CC/C(C)=C/CCC2(C)O (stereo not given) |  | 3 |  | 5.46 |  | 3.07 |  | 4.91 |  | 4.03 |  | 1.63 |  | 3.04 |  | 2.96 |  | 3.14 |  | 3.17
7 | O=C(O)CCC(O)=C1S(=O)(=O)OCCOS1(=O)=O |  | > 100 |  | > 100 |  | > 100 |  | > 100 |  | > 100 |  | > 100 |  | > 100 |  | > 100 |  | > 100 |  | > 100
8 | COc1ccc(/C=C\c2cc(OC)c(OC)c(OC)c2)cc1NC(=O)/C=C/c1ccc(OC)c(OC)c1 | 6.21 | > 100 | 0.0736 | 0.676 | 18.8 | > 100 | 16.5 | > 100 | > 100 | > 100 | 2.61 | > 100 | 5.43 | > 100 | 8.01 | > 100 | 4.3 | > 100 | > 100 | > 100
9 | CC1(Cl)C(=O)NC(=O)N([C@H]2C[C@H](O)[C@@H](CO)O2)C1N=[N+]=[N-] (stereo not given in full) |  | > 100 |  | > 100 |  | > 100 |  | > 100 |  | > 100 |  | > 100 |  | > 100 |  | > 100 |  | > 100 |  | > 100
10 | CC(=O)CC[N+](C)(C)C |  | 67.8 |  | 51.9 |  | 53.4 |  | 59.6 |  | 22.7 |  | 1.96 |  | 53.6 |  | 30.2 |  | 52.1 |  | 38.9
11 | COc1ccc2nc3cc(Cl)ccc3c(Sc3ccc(N)cc3)c2c1 |  | 22.7 |  | 18.3 |  | 32 |  | 27.9 |  | 39.7 |  | 16.2 |  | 24 |  | 29.9 |  | 22 |  | 25.9
12 | Cc1cc(NC(=O)NCCOc2ccc(N3C(N)=NC(N)=NC3(C)C)cc2Cl)ccc1S(=O)(=O)F | > 100 | > 100 | 12 | > 100 | 0.545 | > 100 | 2.76 | > 100 | 5.07 | 22.2 | 2.54 | 17.7 | 1.85 | > 100 | 2.75 | > 77.5 | 4.1 | > 100 | 6.23 | > 100
13 | COc1ccc(Cn2cc3c(c2-c2ccccc2)CCc2cnoc2-3)cc1 | 0.677 | > 100 | 0.226 | > 100 | 0.114 | > 100 | 0.234 | > 100 | 3.31 | > 100 | 0.0327 | 1.15 | 0.545 | > 100 | 0.47 | > 100 | 0.155 | > 100 | > 34.5 | > 100
14 | COc1ccc(C2=Nn3c(nnc3-c3ccc(F)c(Cl)c3)SC2)cc1 | > 100 | > 100 | > 100 | > 100 | > 100 | > 100 | > 100 | > 100 | 18.1 | 56.7 | > 100 | > 100 | 5.53 | > 100 | > 100 | > 100 | > 100 | > 100 | > 100 | > 100
15 | O=[N+]([O-])c1ccc(Sc2cccc[n+]2[O-])c2nonc12 | 5.24 | 17.4 | 30 | > 100 | 3.21 | 14.5 | 7.97 | 26.8 | 5.45 | 23.7 | 1.78 | 3.79 | 8.04 | 22.6 | 3.61 | 13.6 | 4.32 | 16.4 | 8.41 | 20.8
16 | O=C1NC(c2ccccc2)(c2ccccc2)C(=O)N1CCCCCCN1C(=O)NC(c2ccccc2)(c2ccccc2)C1=O |  | > 100 |  | 77.2 |  | > 100 |  | 91.5 |  | 19.9 |  | 84.2 |  | > 100 |  | 27.6 |  | > 100 |  | 77
17 | Nc1c(C(=O)c2cccc(-c3cccnc3)c2)cnn1-c1ccc(F)cc1 | > 25 | > 25 | > 25 | > 25 | > 25 | > 25 | > 25 | > 25 | > 8.11 | > 25 | 6.12 | 24.7 | > 25 | > 25 | > 16.3 | > 25 | > 25 | > 25 | > 25 | > 25
18 | C[C@H]1C[C@@H](n2c(Nc3ccc(OC(F)(F)F)cc3)nc3cc(CCC(=O)O)ccc32)CC(C)(C)C1 | 9.38 | 21.5 | 20 | 35.4 | 12.6 | 28.7 | 12.9 | 30.5 | 16.4 | 32.1 | 14 | 33.2 | 9.95 | 28 | 11.2 | 29.1 | 7.09 | 25 | 20.6 | 46.9

Reference: PubChem BioAssay (NCI)
